Measured values: patent US8367873B2, “Phenyl-substituted bicyclooctane-1,3-dione derivatives” (Bayer Cropscience AG, priority 2008, dated 2013)

Tests used:
Assay type in all cases: in vivo
[1] = system: monocotylidonous and dicotylidonous weed and crop plants; assay: Herbicidal pre-emergence action (other test plants); settings: pre-emergence method, 80 g/ha, greenhouse, visual assessment vs untreated controls
Method in brief: (§1)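 Visual percent effect relative to untreated controls (0% = like control, 100% = dead) assessed three weeks after treatment in the greenhouse. Compounds, as wettable powders in water (600 l/ha, 0.2% wetting agent), were sprayed at different amounts onto covering soil over seeds sown in sandy loam.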

[2] = system: Setaria viridis; assay: Herbicidal pre-emergence action; settings: pre-emergence method, 80 g/ha, greenhouse, visual assessment vs untreated controls
Method in brief: as §1

[3] = system: Echinocloa crus-galli; assay: Herbicidal pre-emergence action; settings: pre-emergence method, 80 g/ha, greenhouse, visual assessment vs untreated controls
Method in brief: as §1

[4] = system: Alopecurus myosuroides; assay: Herbicidal pre-emergence action; settings: pre-emergence method, 80 g/ha, greenhouse, visual assessment vs untreated controls
Method in brief: as §1

[5] = system: Lolium multiflorum; assay: Herbicidal pre-emergence action; settings: pre-emergence method, 80 g/ha, greenhouse, visual assessment vs untreated controls
Method in brief: as §1

[6] = system: Setaria viridis; assay: Herbicidal post-emergence action; settings: post-emergence method; for herbicidal effect against SETVI (Setaria viridis): 80 g/ha; for pest or weed control at 80 g/ha: Setaria viridis, 504 h, read-out: herbicidal effect against SETVI (Setaria viridis)
Method in brief: (§2)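 Greenhouse-grown weeds were treated post-emergence at the one-leaf stage, two to three weeks after sowing in sandy loam. Compounds formulated as WP were sprayed at various rates in 600 l/ha water with 0.2% wetting agent. Damage was scored visually after about three weeks versus untreated controls (0% = like control, 100% = dead).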

[7] = system: Echinocloa crus-galli; assay: Herbicidal post-emergence action; settings: post-emergence method; for herbicidal effect against ECHCG (Echinochloa crus-galli): 80 g/ha; for pest or weed control at 80 g/ha: Echinochloa crus-galli, 504 h, read-out: herbicidal effect against ECHCG (Echinochloa crus-galli)
Method in brief: as §2

[8] = system: Alopecurus myosuroides; assay: Herbicidal post-emergence action; settings: post-emergence method; for herbicidal effect against ALOMY (Alopecurus myosuroides): 80 g/ha; for pest or weed control at 80 g/ha: Alopecurus myosuroides, 504 h, read-out: herbicidal effect against ALOMY (Alopecurus myosuroides)
Method in brief: as §2

[9] = system: Lolium multiflorum; assay: Herbicidal post-emergence action; settings: post-emergence method; for herbicidal effect against LOLMU (Lolium multiflorum): 80 g/ha; for pest or weed control at 80 g/ha: Lolium multiflorum, 504 h, read-out: herbicidal effect against LOLMU (Lolium multiflorum)
Method in brief: as §2

[10] = system: monocotylidonous and dicotylidonous weed and crop plants; assay: Herbicidal post-emergence action (other test plants); settings: post-emergence method; for herbicidal effect against AVEFA (Avena fatua): 80 g/ha; for pest or weed control at 80 g/ha: 504 h, Avena fatua, read-out: herbicidal effect against AVEFA (Avena fatua)
Method in brief: as §2

[11] = system: cereals; assay: Container trials with cereals in the greenhouse, use of safeners (Mefenpyr 1 day prior to herbicide application)
Method: Seeds of monocotylidonous and dicotylidonous weed and crop plants are placed in sandy loam in wood fibre pots, covered with soil and cultivated in a greenhouse under good growth conditions. Two to three weeks after sowing, the test plants are treated at the one-leaf stage. The test compounds, formulated as wettable powders (WP), are then with a water application rate of 600 l/ha (converted), with 0.2% of wetting agent added, sprayed onto the green parts of the plants in different amounts. After the test plants have been kept in the greenhouse under optimum growth conditions for about three weeks, the effect of the preparations is assessed visually in comparison to untreated controls (herbicidal effect in percent: 100% effect=the plants have died, 0% effect=like control plants).
If it is to be additionally tested as to whether safeners can improve the plant compatibility of test substances in the case of crop plants, the following options are used for applying the safeners: • Seeds of the crop plants are, before sowing, dressed with safener substance (the amount of safener stated in percent, based on the weight of the seed) • Before the application of the test substances, the crop plants are sprayed with the safener at a certain application rate per hectare (usually one day before the application of the test substances) • The safener is applied together with the test substance as a tank mix (the amount of safener stated in g/ha or as a ratio, based on the herbicide).
Container Trials with Cereals in the Greenhouse

[12] = 28 days after application, 12.5 g of a.i./ha
[13] = 28 days after application, 25 g of a.i./ha
[14] = 28 days after application, 50 g of a.i./ha
[15] = 28 days after application, 100 g of a.i./ha

SMILES	herbicidal effect AVEFA [1] [%]	herbicidal effect SETVI [2] [%]	herbicidal effect ECHCG [3] [%]	herbicidal effect ALOMY [4] [%]	herbicidal effect LOLMU [5] [%]	herbicidal effect against SETVI (Setaria viridis) [6] [%]	herbicidal effect against ECHCG (Echinochloa crus-galli) [7] [%]	herbicidal effect against ALOMY (Alopecurus myosuroides) [8] [%]	herbicidal effect against LOLMU (Lolium multiflorum) [9] [%]	herbicidal effect against AVEFA (Avena fatua) [10] [%]	Summer wheat observed (%) [11, 12] [%]	Summer wheat observed (%) [11, 13] [%]	Summer wheat observed (%) [11, 14] [%]	Summer wheat observed (%) [11, 15] [%]	Summer barley observed (%) [11, 14] [%]	Summer barley observed (%) [11, 15] [%]	pest or weed control at 80 g/ha [6] [%]	pest or weed control at 80 g/ha [7] [%]	pest or weed control at 80 g/ha [8] [%]	pest or weed control at 80 g/ha [9] [%]	further results
CCOC(=O)OC1=C(c2c(CC)cc(C)cc2CC)C(=O)[C@@H]2CC3(C[C@H]12)OCCO3 (relative stereo) [I-c-7]	70	70	100	100	90	80	100	90	100	70	10	30	30	30							Summer wheat observed (%) ([11]; 10 days after application, 12.5 g of a.i./ha): 40%; Summer wheat observed (%) ([11]; 10 days after application, 25 g of a.i./ha): 50%; Summer wheat observed (%) ([11]; 10 days after application, 50 g of a.i./ha): 60%
CCOC(=O)OC1=C(c2c(CC)cc(C)cc2CC)C(=O)[C@@H]2CC3(C[C@H]12)OCCCCO3 (relative stereo) [I-c-9]	70	70	100	100	100	90	100	90	100	80		30	40	50							
CCOC(=O)OC1=C(c2c(CC)cc(C)cc2CC)C(=O)[C@@H]2CC3(C[C@H]12)OCCCO3 (relative stereo) [I-c-14]	70	70	90	90	100	100	100	90	100	70	40	50	60	70	10	20					
CCc1cc(C)cc(CC)c1C1=C(O)[C@H]2C[C@]3(COC(C)(C)O3)C[C@H]2C1=O [I-a-2]	50	50	90	90	100						40	50	60				90	100	100	100	pest or weed control at 80 g/ha [10]: 70%
C=C1COC2(C[C@@H]3C(O)=C(c4c(CC)cc(C)cc4CC)C(=O)[C@@H]3C2)OC1 [I-a-3]	80	100	100	100	100						10	60	70	85	60	70	100	100	90	100	pest or weed control at 80 g/ha [10]: 90%; Summer barley observed (%) [11, 13]: 20%
